Source: ChEMBL document CHEMBL1781923, “Synthesis and anti-tumor evaluation of panaxadiol derivatives” (Eur J Med Chem, 2011)

Experiments:
[1] = tested on: A549; assay: Cytotoxicity against human A549 cells assessed as cell viability at 100 uM after 48 hrs by MTT assay; assay type: functional; details: A549, 48 h, read-out: Activity
[2] = Cytotoxicity against human ES2 cells after 48 hrs by MTT assay; assay type: functional, cell-based; details: ES-2, 48 h
[3] = tested on: HepG2; assay: Cytotoxicity against human HepG2 cells assessed as cell viability at 25 uM after 48 hrs by MTT assay; assay type: functional; details: HepG2, 48 h, read-out: Activity
[4] = tested on: A549; assay: Cytotoxicity against human A549 cells assessed as cell viability at 50 uM after 48 hrs by MTT assay; assay type: functional; details: A549, 48 h, read-out: Activity
[5] = tested on: U2OS; assay: Cytotoxicity against human U2OS cells after 48 hrs by MTT assay; assay type: functional, cell-based
[6] = tested on: A549; assay: Cytotoxicity against human A549 cells after 48 hrs by MTT assay; assay type: functional, cell-based; details: A549, 48 h
[7] = tested on: U2OS; assay: Cytotoxicity against human U2OS cells assessed as cell viability at 25 uM after 48 hrs by MTT assay; assay type: functional; details: read-out: Activity
[8] = tested on: HepG2; assay: Cytotoxicity against human HepG2 cells after 48 hrs by MTT assay; assay type: functional, cell-based; details: HepG2, 48 h
[9] = tested on: HepG2; assay: Cytotoxicity against human HepG2 cells assessed as cell viability at 50 uM after 48 hrs by MTT assay; assay type: functional; details: HepG2, 48 h, read-out: Activity
[10] = tested on: U2OS; assay: Cytotoxicity against human U2OS cells assessed as cell viability at 50 uM after 48 hrs by MTT assay; assay type: functional; details: read-out: Activity
[11] = Cytotoxicity against human ES2 cells assessed as cell viability at 25 uM after 48 hrs by MTT assay; assay type: functional; details: ES-2, 48 h, read-out: Activity
[12] = Cytotoxicity against human ES2 cells assessed as cell viability at 50 uM after 48 hrs by MTT assay; assay type: functional; details: ES-2, 48 h, read-out: Activity

SMILES	viability at 100 µM [1] [%]	IC50 [2] [µM]	viability at 25 µM [3] [%]	viability at 50 µM [4] [%]	IC50 [5] [µM]	IC50 [6] [µM]	viability at 25 µM [7] [%]	IC50 [8] [µM]	viability at 50 µM [9] [%]	viability at 50 µM [10] [%]	viability at 25 µM [11] [%]	viability at 50 µM [12] [%]
CC1(C)CCC[C@](C)([C@H]2CC[C@]3(C)[C@@H]2[C@H](O)C[C@@H]2[C@@]4(C)CC[C@H](OC(=O)CN)C(C)(C)[C@@H]4CC[C@]23C)O1	13.5	9.9	10.3	18.7	13.7	14	13	11.3	10	12	7.51	6.66
CC(C)=CCC[C@@](C)(O)[C@H]1CC[C@]2(C)[C@@H]1[C@H](O)C[C@@H]1[C@@]3(C)CC[C@H](O[C@@H]4O[C@H](CO)[C@@H](O)[C@H](O)[C@H]4O[C@@H]4O[C@H](CO)[C@@H](O)[C@H](O)[C@H]4O)C(C)(C)[C@@H]3CC[C@]12C	71.1	> 100	81.3	75.6	> 100	> 100	72.2	> 100	76.2	81.3	82	74.5
C/C=C(\C)C(=O)O[C@H]1CC[C@]2(C)[C@H]3C[C@@H](O)[C@@H]4[C@@H]([C@@]5(C)CCCC(C)(C)O5)CC[C@@]4(C)[C@]3(C)CC[C@H]2C1(C)C	–	4.26	–	–	14.7	> 50	–	> 50	–	–	–	–
CCCCC/C=C/C/C=C/CCCCCCCC(=O)O[C@H]1CC[C@]2(C)[C@H]3C[C@@H](O)[C@@H]4[C@@H]([C@@]5(C)CCCC(C)(C)O5)CC[C@@]4(C)[C@]3(C)CC[C@H]2C1(C)C	–	17.9	–	–	32.1	> 50	–	> 50	–	–	–	–
C/C=C/C=C/C(=O)O[C@H]1CC[C@]2(C)[C@H]3C[C@@H](O)[C@@H]4[C@@H]([C@@]5(C)CCCC(C)(C)O5)CC[C@@]4(C)[C@]3(C)CC[C@H]2C1(C)C	–	13.7	–	–	43.3	> 50	–	> 50	–	–	–	–
CCCCCCCC/C=C/CCCCCCCCCCCC(=O)O[C@H]1CC[C@]2(C)[C@H]3C[C@@H](O)[C@@H]4[C@@H]([C@@]5(C)CCCC(C)(C)O5)CC[C@@]4(C)[C@]3(C)CC[C@H]2C1(C)C	–	14.8	–	–	40.5	> 50	–	> 50	–	–	–	–
C=CCCCCCCCCC(=O)O[C@H]1CC[C@]2(C)[C@H]3C[C@@H](O)[C@@H]4[C@@H]([C@@]5(C)CCCC(C)(C)O5)CC[C@@]4(C)[C@]3(C)CC[C@H]2C1(C)C	–	19.4	–	–	31.6	> 50	–	> 50	–	–	–	–
CSCCC(N)C(=O)O[C@H]1CC[C@]2(C)[C@H]3C[C@@H](O)[C@@H]4[C@@H]([C@@]5(C)CCCC(C)(C)O5)CC[C@@]4(C)[C@]3(C)CC[C@H]2C1(C)C (stereo partly specified)	12.7	13.1	28.4	21.6	16.8	22.4	18.4	11.8	8.56	11.6	13	6.4
CC/C=C(\C)C(=O)O[C@H]1CC[C@]2(C)[C@H]3C[C@@H](O)[C@@H]4[C@@H]([C@@]5(C)CCCC(C)(C)O5)CC[C@@]4(C)[C@]3(C)CC[C@H]2C1(C)C	–	24.2	–	–	38	> 50	–	> 50	–	–	–	–
CCC/C=C/C(=O)O[C@H]1CC[C@]2(C)[C@H]3C[C@@H](O)[C@@H]4[C@@H]([C@@]5(C)CCCC(C)(C)O5)CC[C@@]4(C)[C@]3(C)CC[C@H]2C1(C)C	–	13.7	–	–	43.9	> 50	–	> 50	–	–	–	–
CC(C)CC(N)C(=O)O[C@H]1CC[C@]2(C)[C@H]3C[C@@H](O)[C@@H]4[C@@H]([C@@]5(C)CCCC(C)(C)O5)CC[C@@]4(C)[C@]3(C)CC[C@H]2C1(C)C (stereo partly specified)	10.5	17.9	28.1	18.1	18	24.9	18.1	5.03	15.3	14.3	10.8	6.91
CC1(C)CCC[C@](C)([C@H]2CC[C@]3(C)[C@@H]2[C@H](O)C[C@@H]2[C@@]4(C)CC[C@H](O)C(C)(C)[C@@H]4CC[C@]23C)O1 [PANAXADIOL]	24.5	5.61	69	36	26.8	43.1	53.4	37.9	37.7	25.7	18.8	12.4
C=CCCC(=O)O[C@H]1CC[C@]2(C)[C@H]3C[C@@H](O)[C@@H]4[C@@H]([C@@]5(C)CCCC(C)(C)O5)CC[C@@]4(C)[C@]3(C)CC[C@H]2C1(C)C	–	11.8	–	–	39	> 50	–	> 50	–	–	–	–
CC1(C)CCC[C@](C)([C@H]2CC[C@]3(C)[C@@H]2[C@H](O)C[C@@H]2[C@@]4(C)CC[C@H](OC(=O)C5CCCN5)C(C)(C)[C@@H]4CC[C@]23C)O1 (stereo partly specified)	14.1	16.7	5.72	19.5	14.4	7.63	12.4	8.91	6.39	8.72	10.4	6.04
CC1(C)CCC[C@](C)([C@H]2CC[C@]3(C)[C@@H]2[C@H](O)C[C@@H]2[C@@]4(C)CC[C@H](OC(=O)C(N)Cc5ccccc5)C(C)(C)[C@@H]4CC[C@]23C)O1 (stereo partly specified)	15.2	15.2	9.95	20.5	16.4	18.6	15	8.82	8.82	10.9	10.3	8.58
CCCCCCCC/C=C/CCCCCCCC(=O)O[C@H]1CC[C@]2(C)[C@H]3C[C@@H](O)[C@@H]4[C@@H]([C@@]5(C)CCCC(C)(C)O5)CC[C@@]4(C)[C@]3(C)CC[C@H]2C1(C)C	–	20.9	–	–	16.6	> 50	–	> 50	–	–	–	–
CC(C)C(N)C(=O)O[C@H]1CC[C@]2(C)[C@H]3C[C@@H](O)[C@@H]4[C@@H]([C@@]5(C)CCCC(C)(C)O5)CC[C@@]4(C)[C@]3(C)CC[C@H]2C1(C)C (stereo partly specified)	15.4	16.2	26.4	21.2	17.3	31.8	16.4	9.29	11.7	13.7	14.6	6.47
C=CC(=O)O[C@H]1CC[C@]2(C)[C@H]3C[C@@H](O)[C@@H]4[C@@H]([C@@]5(C)CCCC(C)(C)O5)CC[C@@]4(C)[C@]3(C)CC[C@H]2C1(C)C	–	8.02	–	–	20.8	> 50	–	> 50	–	–	–	–
